Experiment [1] deals with T1, recombinant BACE1 (rBACE1) (Homo sapiens, UniProt P56817).
T1 construct: purchased R&D Systems 931-AS
The experiment is described as follows: BACE1 activity with recombinant BACE1 in the presence of LA or c9,t11-CLA. The format is biochemical. Particulars: 100 μM; for BACE1 activity compared to just a solvent DMSO: rBACE1, 37° C. 15 min, then substrate 1 h. The method, then: Whether or not c9,t11-CLA directly acted on BACE1 and changed its activity was checked by measuring the BACE1 activity in the presence or absence of LA or c9,t11-CLA while recombinant BACE1 (rBACE1, catalog number 931-AS; R&D Systems, Minneapolis, Minn., USA) was used (FIG. 6). First, 100 μM LA or c9,t11-CLA, which had been dissolved in DMSO, was added to rBACE1, and the mixture was incubated at 37° C. for 15 min. Next, a chromogenic substrate was added and incubated at 37° C. for 1 h. Then, the BACE1 activity was measured.

Experiment [2] relates to neurons from APP-KI mouse. The experiment is described as follows: Human Aβ42 secreted by APP-KI mouse neurons. The format is cell-based. The conditions noted are these: LA-treated versus c9,t11-CLA-treated nerves, p<0.05, not shown. From the text: The amount of Aβ42 generated from endogenous amyloid-β (Aβ) precursor protein APP is usually very small. Thus, it is difficult to accurately quantify Aβ42 secreted from wild-type mouse neurons. Then, the mouse Aβ sequence was changed to a human form (in FIG. 3(B), the mouse and human amino acid sequences). After that, neurons from a knock-in mouse, into which a familial Alzheimer's disease mutation that increases the level of Aβ42 produced was introduced, (Apptm3.1Tcs/Apptm3.1Tcs) (hereinafter, the same as a mouse called APP-KI mouse described in Non-Patent Literature 6: Saito et al. [2014] Nature Neuroscience 17, 661-663) were cultured in a manner similar to the above. Finally, human Aβ42 secreted while the same experiments as in FIG. 3(A) were repeated was quantified (Non-Patent Literature 7: Kimura, Hata, Suzuki [2016] J. Biol. Chem. 291, 24041-24053).

Experiment [3] concerns neural stem cells. Particulars: Non-Patent Literature 3; cited from earlier work.
Experiment [4] has as its system neurons. The conditions noted are these: Non-Patent Literature 1; cited from earlier work.
In experiment [5] the test system is AD model mice. The experiment is described as follows: AD model mice with oral intake of c9,t11-CLA: brain staining (IL-10, phosphorylated tau, astrocytes, microglia). The format is in vivo, mouse.
In experiment [6] the test system is BACE1. The experiment is described as follows: BACE1 activity of wild-type mouse neurons (β-Secretase Activity Assay Kit). The conditions noted are these: 10 uM, 24 h, compared with LA-added neurons. The format is cell-based. The method, then:
The BACE1 activity of the above wild-type mouse neurons used in the experiments shown in FIG. 3 was measured using a β-Secretase (BACE1) Activity Assay Kit (“ab65357”, Abcam, Inc.) in accordance with the instructions.

In experiment [7] the test system is wild-type neurons. The experiment is described as follows: Western blot of APP, BACE1 and PS1 NTF levels in wild-type neurons. The format is cell-based, mouse. Particulars: c9,t11-CLA versus LA. The method, then:
Western blot was used to analyze the level of APP (Aβ precursor, which is a substrate for BACE1), BACE1, PS1 NTF (a catalytic unit of γ-Secretase, which is an enzyme for cleaving CTFβ, an APP C-terminal fragment containing an Aβ sequence cleaved by BACE1, to generate Aβ), and a membrane protein Flotillin (control protein) in the LA-added or c9,t11-CLA-added wild-type neurons. The whole cells were lysed in RIPA buffer (components: 50 mM Tris-HCl [pH 8.0], 150 mM NaCl, 0.5% SDS, 0.5% sodium deoxycholate, and 1% Nonidet P-40). The extracted proteins (15 μg protein) were subjected to electrophoresis using SDS-polyacrylamide gel. Then, Western blot with each antibody was used to analyze APP (with the same as an antibody G369, described in Non-Patent Literature 8: Oishi et al. [1997] Mol. Med. 3, 111-123), BACE1 (with an antibody D10E5; Cell Signaling Technology, Inc.), PS1 NTF (with the same as an antibody Ab14, described in Non-Patent Literature 9: Thinakaran et al. [1996] Neuron, 17, 181-190), and Flotillin-1 (with an antibody 610821, BD Bioscience, Inc.). The protein reacted with each antibody was detected using a Clarity Western ECL substrate (Cat *170-5061; Bio-Rad) and quantified with LAS-4000 (Fujifilm).

Experiment [8] concerns wild-type mouse neurons. The experiment is described as follows: Aβ40 secreted into culture medium by wild-type mouse neurons (sandwich ELISA). In kind it is cell-based. The conditions noted are these: 10 uM, 24 h; compared with LA-added neurons (LA set to 1.0). The procedure:
Neurons in the cerebral cortex and hippocampus were isolated from the fetal brain of wild-type mouse (C57BL6/J) and were cultured in Neurobasal Medium containing 2% B-27 Supplement (Invitrogen), 4 mM Glutamax I, and 5% heat-inactivated horse serum (the other detailed conditions were substantially the same as in the protocol disclosed in Non-Patent Literature 4: Chiba et al., [2014] Mol. Biol. Cell 25, 3569-3580).
Primary culture nerves (5×10^3 cells), which had been cultured by the above procedure for 9 to 12 days (DIV9-12), were cultured for 24 h in each of a culture medium containing 10 uM linoleic acid (LA “L1376”, Sigma-Aldrich, Inc.) or a culture medium containing 10 uM c9,t11-CLA (purity: 98%, ABCAM, Inc.) (the experiment was triplicate: n=3 to 6). Next, for each of a sample using LA or a sample using c9,t11-CLA, mouse amyloid β-protein 40 (Aβ40) secreted into the culture medium was quantified by sandwich ELISA (sELISA). […]
The complex was then reacted with an IgG Fab′ fragment of HRP (Horseradish peroxidase)-labeled mouse/rat Aβ(1-16) sequence-specific (rabbit) antibody (IBL, Inc.: Immuno-Biological Laboratories Co, Ltd.). After that, TMB (3,3′,5,5′-tetramethyl benzidine) was used as a chromogenic substrate for quantification. […] In FIG. 3(A), while the level of Aβ40 secreted when LA was added was set to 1.0, the level of Aβ40 secreted when c9,t11-CLA was added was quantified.

[9] abbreviates: hippocampus, oral intake versus no intake.

T1 sequence (P56817 46-457 limits assumed): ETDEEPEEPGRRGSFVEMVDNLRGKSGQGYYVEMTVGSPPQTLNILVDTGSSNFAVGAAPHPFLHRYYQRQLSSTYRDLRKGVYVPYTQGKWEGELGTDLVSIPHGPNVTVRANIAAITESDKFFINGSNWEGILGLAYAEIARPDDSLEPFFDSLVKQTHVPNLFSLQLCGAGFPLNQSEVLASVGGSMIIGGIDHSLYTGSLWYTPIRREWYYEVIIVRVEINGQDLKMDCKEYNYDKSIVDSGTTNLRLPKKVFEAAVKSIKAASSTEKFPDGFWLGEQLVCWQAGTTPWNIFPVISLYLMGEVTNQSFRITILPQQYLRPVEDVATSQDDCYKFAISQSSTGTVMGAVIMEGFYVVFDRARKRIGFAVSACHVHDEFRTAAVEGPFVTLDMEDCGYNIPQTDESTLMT

Turning to `CCCCC/C=C\C/C=C\CCCCCCCC(=O)O` [LA, linoleic acid, reference compound], the “BACE1 activity compared to just a solvent DMSO” value in experiment [1] is on record as “increase in the activity”. The “level of human Aβ42 secreted” value in experiment [2] is “significantly lower”.
Take `CCCCC/C=C\C=C\CCCCCCCCC(=O)O` [t10,c12-CLA, t10,c12-conjugated linoleic acid, reference compound]: in experiment [3], the “effect on growth of neural stem cells” value was “inhibition of growth of neural stem cells”. The “prevention of glutamic acid-induced hyper-excited state and cell death of neurons (neuroprotective effect)” value in experiment [4] was “fails to exert such effects”.
For `CCCCCC/C=C/C=C\CCCCCCCC(=O)O` [c9,t11-CLA, c9,t11-conjugated linoleic acid], the “Microglia (Iba1 staining)” value in experiment [5] (cortex, CLA intake group) is “significant increase”. For the same compound, in experiment [5] (hippocampus, CLA intake group), the “Microglia (Iba1 staining)” value was “significant increase” and the “number of IL-10-expressing cells” value is given as “significantly increased”. In addition, in experiment [5] (setting [9]), the Astrocyte staining result is recorded as “tended to decrease” and the “Phosphorylated tau protein staining” value is “tended to decrease”. Moreover, in experiment [6], the “BACE1 activity of neurons” value is given as “significantly lower”. The “effect on growth of neural stem cells” value in experiment [3] is given as “promoting growth of neural stem cells”. In addition, in experiment [7], the “level of APP” value is “no observed significant difference”, the “level of BACE1” value is “no observed significant difference” and the “level of PS1 NTF” value is given as “no observed significant difference”. Further, in experiment [8], the “level of Aβ produced/secreted (mouse Aβ40)” value is given as “significantly lower”. Besides, the “difference in BACE1 activity between LA and c9,t11-CLA” value in experiment [1] (rBACE1) was “no observed significant difference”. In experiment [1], the “BACE1 activity compared to just a solvent DMSO” value is “increase in the activity”. Also, the “prevention of glutamic acid-induced hyper-excited state and cell death of neurons (neuroprotective effect)” value in experiment [4] is “can exert the effects”.
